Data as given in ChEMBL document CHEMBL1201862, “PubChem BioAssay data set” (2004).
Calls of active or inactive are those of the source.

Tests used:
[1] = test system: A-375; experiment: MITF: Counter assay: A375 proliferation Measured in Cell-Based System Using Plate Reader - 2084-03_Inhibitor_Dose_DryPowder_Activity. [Related pubchem assays (depositor defined):AID488944]; format: functional; conditions: Homo sapiens
[2] = test system: A-375; experiment: proliferation inhibition in MITF-low A375 cells – cell-based, cherry-pick samples, set 2, counter-screen for MITF modulator project, dose response (AID 540335); format: functional; conditions: Homo sapiens
[3] = Luminescence Cell-Based Dose Response Follow up to Identify Inhibitors of Platelet Dense Granule Release. [Related pubchem assays (depositor defined):AID1663, AID1678, AID1889, AID2519]; format: functional
[4] = blockers of SFLLRN-triggered platelet ATP secretion – cell-based, human platelets, luminescence, dry powder, dose response (AID 493100); format: functional
[5] = molecular target: T1, Kappa-type opioid receptor (Homo sapiens, UniProt P41145); format: functional
T1 sequence (P41145 whole entry): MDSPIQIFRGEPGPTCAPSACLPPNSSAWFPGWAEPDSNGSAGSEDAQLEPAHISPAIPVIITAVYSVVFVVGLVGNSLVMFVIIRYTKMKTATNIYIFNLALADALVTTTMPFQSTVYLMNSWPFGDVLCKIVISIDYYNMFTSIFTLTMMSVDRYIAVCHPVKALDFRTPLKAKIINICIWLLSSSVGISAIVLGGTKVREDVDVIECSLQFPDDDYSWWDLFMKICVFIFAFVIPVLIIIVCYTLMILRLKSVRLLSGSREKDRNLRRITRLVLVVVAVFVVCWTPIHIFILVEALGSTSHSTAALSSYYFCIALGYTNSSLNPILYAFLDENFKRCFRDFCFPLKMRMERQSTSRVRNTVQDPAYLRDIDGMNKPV

[6] = molecular target: T1, Kappa-type opioid receptor; format: functional; remark: listed apart in the source
[7] = molecular target: T2, Delta-type opioid receptor (Homo sapiens, UniProt P41143); experiment: HTS Image-Based Screen for Agonists of the DOR Receptor. [Related pubchem assays (depositor defined):AID1777, AID1786, AID2133]; format: functional
T2 sequence (P41143 whole entry): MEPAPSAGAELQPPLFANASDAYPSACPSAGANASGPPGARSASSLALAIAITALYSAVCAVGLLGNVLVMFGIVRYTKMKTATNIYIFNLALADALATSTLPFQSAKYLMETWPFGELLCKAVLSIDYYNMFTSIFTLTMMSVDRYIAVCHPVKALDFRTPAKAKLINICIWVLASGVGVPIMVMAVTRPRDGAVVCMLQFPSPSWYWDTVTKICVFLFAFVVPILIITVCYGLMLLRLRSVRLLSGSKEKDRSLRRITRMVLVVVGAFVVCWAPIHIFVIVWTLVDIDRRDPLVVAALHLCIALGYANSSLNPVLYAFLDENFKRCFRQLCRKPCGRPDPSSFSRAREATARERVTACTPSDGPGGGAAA

[8] = molecular target: Mu-type opioid receptor (Homo sapiens, UniProt P35372); experiment: HTS Image-Based Screen for Agonists of the MOR Receptor. [Related pubchem assays (depositor defined):AID1777, AID1785, AID1786, AID2133]; format: functional;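 further: imaging of beta-arrestin GFP recruitment into spots after receptor activation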
Mu-type opioid receptor, sequence (P35372 whole entry): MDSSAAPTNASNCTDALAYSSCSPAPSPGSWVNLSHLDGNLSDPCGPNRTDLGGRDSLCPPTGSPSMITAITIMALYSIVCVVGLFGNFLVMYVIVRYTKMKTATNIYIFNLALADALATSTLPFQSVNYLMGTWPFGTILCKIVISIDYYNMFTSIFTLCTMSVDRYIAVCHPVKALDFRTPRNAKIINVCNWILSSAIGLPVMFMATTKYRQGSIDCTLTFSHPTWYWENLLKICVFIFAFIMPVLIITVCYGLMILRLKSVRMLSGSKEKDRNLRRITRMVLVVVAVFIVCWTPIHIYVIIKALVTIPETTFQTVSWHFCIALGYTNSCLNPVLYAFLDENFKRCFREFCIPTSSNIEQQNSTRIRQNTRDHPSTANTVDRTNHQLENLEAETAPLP

[9] = molecular target: T2, Delta-type opioid receptor; experiment: HTS Image-Based Screen for Antagonists of the DOR Receptor. [Related pubchem assays (depositor defined):AID1777, AID1785, AID1786, AID2133]; format: functional
[10] = test system: HEK293; experiment: NOD2 signaling inhibitors in MDP-stimulated cells, cell-based, uHTS, luminescence (AID 2001); format: functional; conditions: Homo sapiens
[11] = test system: HEK293; experiment: cells; format: functional, cell-based; conditions: Homo sapiens
[12] = test system: HEK293; experiment: inhibition of NOD1-driven NF-kB reporter – cell-based, luminescence, uHTS, primary screen (AID 1578); format: functional; conditions: Homo sapiens
[13] = test system: HEK293; experiment: cells; format: functional, cell-based; conditions: Homo sapiens; remark: listed apart in the source
[14] = test system: HEK293; experiment: cells; format: functional, cell-based; conditions: Homo sapiens; remark: listed apart in the source
[15] = molecular target: Nucleotide-binding oligomerization domain-containing protein 2 (Homo sapiens, UniProt Q9HC29); experiment: inhibition of NOD2-driven NF-kB reporter – cell-based, luminescence, uHTS, HEK293 (AID 1566); format: functional
Nucleotide-binding oligomerization domain-containing protein 2, sequence (Q9HC29 whole entry, the tested form may be a part): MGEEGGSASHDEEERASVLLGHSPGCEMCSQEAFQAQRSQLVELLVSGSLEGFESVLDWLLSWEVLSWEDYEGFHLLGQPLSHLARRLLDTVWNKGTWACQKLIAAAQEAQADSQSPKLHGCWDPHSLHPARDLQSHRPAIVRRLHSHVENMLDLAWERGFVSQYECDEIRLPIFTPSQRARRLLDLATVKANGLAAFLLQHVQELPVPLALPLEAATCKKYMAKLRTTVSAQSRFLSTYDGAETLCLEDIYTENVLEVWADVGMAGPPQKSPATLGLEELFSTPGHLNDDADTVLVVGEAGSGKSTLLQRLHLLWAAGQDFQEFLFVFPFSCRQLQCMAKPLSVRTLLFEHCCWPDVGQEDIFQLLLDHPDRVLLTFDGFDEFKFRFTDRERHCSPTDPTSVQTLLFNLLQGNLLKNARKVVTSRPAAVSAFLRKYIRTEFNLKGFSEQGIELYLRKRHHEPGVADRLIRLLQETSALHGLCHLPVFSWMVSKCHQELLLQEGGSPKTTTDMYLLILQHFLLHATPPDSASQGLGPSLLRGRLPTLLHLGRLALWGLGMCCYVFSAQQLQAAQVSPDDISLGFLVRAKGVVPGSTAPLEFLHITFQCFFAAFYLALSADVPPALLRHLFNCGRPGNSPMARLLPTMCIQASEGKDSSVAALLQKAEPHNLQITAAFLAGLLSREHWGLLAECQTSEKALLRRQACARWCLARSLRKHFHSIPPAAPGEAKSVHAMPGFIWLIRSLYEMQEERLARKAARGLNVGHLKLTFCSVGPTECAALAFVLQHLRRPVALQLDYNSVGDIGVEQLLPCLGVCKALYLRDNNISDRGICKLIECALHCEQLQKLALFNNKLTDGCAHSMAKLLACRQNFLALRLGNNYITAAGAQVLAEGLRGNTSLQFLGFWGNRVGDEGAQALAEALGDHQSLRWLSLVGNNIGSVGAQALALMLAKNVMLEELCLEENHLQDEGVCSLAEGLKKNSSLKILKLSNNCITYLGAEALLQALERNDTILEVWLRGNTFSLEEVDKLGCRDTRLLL

[16] = molecular target: Glycogen synthase kinase-3 beta (Homo sapiens, UniProt P49841); experiment: Inhibition of Human GSK-3 beta Activity Measured in Biochemical System Using Microfluidics - 2063-05_Inhibitor_Dose_DryPowder_Activity. [Related pubchem assays (depositor defined):AID2709]
Glycogen synthase kinase-3 beta, sequence (P49841 whole entry): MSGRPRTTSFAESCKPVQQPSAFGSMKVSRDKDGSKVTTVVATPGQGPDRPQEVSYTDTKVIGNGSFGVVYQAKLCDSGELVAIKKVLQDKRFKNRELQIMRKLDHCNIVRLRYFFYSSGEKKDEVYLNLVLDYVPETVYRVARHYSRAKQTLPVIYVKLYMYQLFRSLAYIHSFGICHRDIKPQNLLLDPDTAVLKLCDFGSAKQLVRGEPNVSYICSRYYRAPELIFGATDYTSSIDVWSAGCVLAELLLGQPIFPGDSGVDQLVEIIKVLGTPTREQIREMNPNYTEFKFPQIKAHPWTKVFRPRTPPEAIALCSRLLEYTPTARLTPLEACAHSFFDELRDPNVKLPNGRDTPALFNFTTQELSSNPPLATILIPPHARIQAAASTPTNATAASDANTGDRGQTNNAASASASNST

[17] = molecular target: T3, G-protein coupled receptor 55 (Homo sapiens, UniProt Q9Y2T6); experiment: SAR analysis of selective Agonists of GPR55 using an Image-Based Assay. [Related pubchem assays (depositor defined):AID1961, AID1965]; format: functional
T3 sequence (Q9Y2T6 whole entry): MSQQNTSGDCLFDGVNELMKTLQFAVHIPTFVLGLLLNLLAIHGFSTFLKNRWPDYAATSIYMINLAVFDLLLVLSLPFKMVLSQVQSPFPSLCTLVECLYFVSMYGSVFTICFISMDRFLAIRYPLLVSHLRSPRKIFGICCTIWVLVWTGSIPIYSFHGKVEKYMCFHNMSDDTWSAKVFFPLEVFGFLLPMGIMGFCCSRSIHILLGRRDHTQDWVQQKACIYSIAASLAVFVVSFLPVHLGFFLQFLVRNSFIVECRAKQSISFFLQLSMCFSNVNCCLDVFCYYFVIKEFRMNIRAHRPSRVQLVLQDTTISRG

[18] = molecular target: T3, G-protein coupled receptor 55; experiment: selective activators of receptor GPR55 – imaging, U2OS cells, beta-arrestin-GFP redistribution, primary screen (AID 1961); format: functional
[19] = molecular target: T4, Cannabinoid receptor 2 (Homo sapiens, UniProt P34972); experiment: SAR analysis of antagonists of the Cannabinoid Receptor 2 using an Image-Based Assay - Set 2. [Related pubchem assays (depositor defined):AID1961, AID1965]; format: functional
T4 sequence (P34972 whole entry): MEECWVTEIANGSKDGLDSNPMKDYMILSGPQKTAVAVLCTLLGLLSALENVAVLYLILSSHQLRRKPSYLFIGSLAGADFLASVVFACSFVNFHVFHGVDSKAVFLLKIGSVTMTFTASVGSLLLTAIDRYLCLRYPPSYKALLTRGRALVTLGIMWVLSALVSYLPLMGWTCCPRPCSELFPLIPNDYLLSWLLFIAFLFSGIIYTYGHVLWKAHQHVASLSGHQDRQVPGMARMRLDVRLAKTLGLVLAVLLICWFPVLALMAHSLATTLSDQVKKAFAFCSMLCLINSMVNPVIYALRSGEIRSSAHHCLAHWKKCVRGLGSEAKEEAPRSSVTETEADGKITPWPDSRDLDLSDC

[20] = molecular target: T4, Cannabinoid receptor 2; experiment: SAR analysis of agonists of the Cannabinoid Receptor 2 using an Image-Based Assay - Set 2. [Related pubchem assays (depositor defined):AID1961, AID1965]; format: functional
[21] = molecular target: Cannabinoid receptor 1 (Homo sapiens, UniProt P21554); experiment: SAR analysis of antagonists of the Cannabinoid Receptor 1 using an Image-Based Assay. [Related pubchem assays (depositor defined):AID1961, AID1965]; format: functional
Cannabinoid receptor 1, sequence (P21554 whole entry): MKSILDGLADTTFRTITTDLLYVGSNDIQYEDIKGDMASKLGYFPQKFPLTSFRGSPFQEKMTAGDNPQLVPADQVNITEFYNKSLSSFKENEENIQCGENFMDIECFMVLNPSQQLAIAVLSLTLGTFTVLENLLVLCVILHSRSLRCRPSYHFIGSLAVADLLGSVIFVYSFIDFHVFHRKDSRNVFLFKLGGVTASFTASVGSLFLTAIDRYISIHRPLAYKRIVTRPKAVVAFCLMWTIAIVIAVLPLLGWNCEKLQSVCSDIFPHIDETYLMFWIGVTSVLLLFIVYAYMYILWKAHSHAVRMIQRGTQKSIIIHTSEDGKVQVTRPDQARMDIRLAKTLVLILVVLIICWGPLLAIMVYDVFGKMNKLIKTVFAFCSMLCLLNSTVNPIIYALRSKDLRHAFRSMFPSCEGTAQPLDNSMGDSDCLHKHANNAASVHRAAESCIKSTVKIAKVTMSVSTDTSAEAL

In the case of `c1cc(CSc2nnc(-c3ccc4c(c3)OCO4)o2)ccn1`, the AC50 [1] is reported as > 35 µM (active) and the AC50 [2] is reported as > 35 µM (active).
With `O=C(Nc1ccccc1)c1ccccc1Br` the EC50 [3] was 1.97 µM (active) and the AC50 [4] was 5.98 µM (active).
With `CC(Sc1nnc(CN2CCCC2)n1Cc1ccccc1)C(=O)Nc1ccc(F)cc1` (stereo unspecified) the EC50 [5] was 3.33 µM, the EC50 [6] was 3.82 µM and the EC50 [7] was > 32 µM (inactive). For the same molecule, the EC50 [8] was > 32 µM (inactive) and the IC50 [9] was > 32 µM (inactive).
With `Cc1ccc(-n2c(C)c([N+](=O)[O-])c3ccc(O)cc32)cc1` the IC50 [10] was 1.18 µM (active), the IC50 [11] was 1.05 µM (active) and the EC50 [12] was 16 µM (active). For the same molecule, the IC50 [13] was > 20 µM (inactive), the IC50 [14] was > 20 µM (inactive) and the EC50 [15] was > 20 µM (inactive). For the same molecule, the AC50 [16] was < 0.068 µM (active).
For `O=C(CSc1nc2ccccc2s1)N1c2ccccc2Sc2ccc(Cl)cc21`, the EC50 [17] was 0.748 µM (active), the EC50 [18] was 0.84 µM (active) and the IC50 [19] was > 32 µM (inactive). The EC50 [20] was 0.0905 µM (active) and the IC50 [21] was > 32 µM (inactive).
